A short description of assay [1]: Cytotoxicity against mouse EAC cells assessed as nonviable cell at 10 ug/mL relative to doxorubicin. The class given is functional, Ehrlich.
Assay [2] in a line: Cytotoxicity against mouse EAC cells assessed as nonviable cell at 50 ug/mL relative to doxorubicin. The assay is classed as functional, Ehrlich.
The nature of assay [3]: Cytotoxicity against mouse EAC cells. The assay is classed as functional, cell-based, Ehrlich.
The nature of assay [4]: Cytotoxicity against mouse EAC cells assessed as nonviable cell at 100 ug/mL relative to doxorubicin. The assay is classed as functional, Ehrlich.
Assay [5] can be described thus: Cytotoxicity against mouse EAC cells assessed as nonviable cell at 25 ug/mL relative to doxorubicin. The assay is classed as functional, Ehrlich.
Where [6] appears, read: Mus musculus, Ehrlich, read-out: IC50.

As usually defined, the IC50 is the concentration that gives 50% inhibition. As for `COc1cc(N2C(N)=C(C#N)C(c3ccc(Cl)cc3Cl)C3=C2CC(C)(C)CC3=O)cc(OC)c1OC` (stereo not given), the Activity in assay [1] was found to be 20%; in assay [2], 95%; in assay [4], 100%; in assay [5], 55%. The 50% inhibitory concentration (IC50) in assay [3] (setting [6]) turned out to be 94.7 µM.
As to `COc1cc(C2C(C#N)=C(N)N(c3cc(OC)c(OC)c(OC)c3)C3=C2C(=O)CC(C)(C)C3)ccc1O` (stereo not given), the Activity in assay [1] was found to be 10%; in assay [2] it was 30%; in assay [4], 40%; in assay [5] it was 20%. For the same compound, the IC50 result in assay [3] (ehrlich) is on record as “Not Active”.
In the case of `COc1ccc(C2C(C#N)=C(N)N(c3cc(OC)c(OC)c(OC)c3)C3=C2C(=O)CC(C)(C)C3)cc1` (stereo not given), the Activity in assay [1] was found to be 0%; in assay [2], 11%; in assay [4], 15%; in assay [5] it was 1%. Moreover, the IC50 result in assay [3] (ehrlich) is given as “Not Active”.
Regarding `COc1cc(N2C(N)=C(C#N)C(c3ccccc3Cl)C3=C2CC(C)(C)CC3=O)cc(OC)c1OC` (stereo not given), the Activity is listed as 10% in assay [1], 20% in assay [2], 20% in assay [4] and 15% in assay [5]. In assay [3] (ehrlich), the IC50 result is “Not Active”.
For `COc1cccc2c1C(=O)c1c(O)c3c(c(O)c1C2=O)C[C@@](O)(C(=O)CO)C[C@@H]3O[C@H]1C[C@H](N)[C@H](O)[C@H](C)O1` [DOXORUBICIN], the Activity in assay [1] is listed as 24%; in assay [2] it was 68%; in assay [4] it was 100%; in assay [5], 30%. In addition, in assay [3] (setting [6]), the concentration for half-maximal inhibition (IC50) came out at 68.1 µM.
For `COc1cc(N2C(N)=C(C#N)C(/C=C/c3ccccc3)C3=C2CC(C)(C)CC3=O)cc(OC)c1OC` (stereo not given), the Activity in assay [1] turned out to be 10%; in assay [2], 30%; in assay [4], 40%; in assay [5], 30%. In assay [3] (ehrlich), the IC50 entry is reported as “Not Active”.
On to `COc1cc(N2C(N)=C(C#N)C(c3cccs3)C3=C2CC(C)(C)CC3=O)cc(OC)c1OC` (stereo not given), for which the Activity in assay [1] was found to be 5%; in assay [2] it was 15%; in assay [4] it was 20%; in assay [5], 10%. The IC50 entry in assay [3] (ehrlich) is “Not Active”.
Turning to `COc1cc(N2C(N)=C(C#N)C(c3c(OC)ccc4ccccc34)C3=C2CC(C)(C)CC3=O)cc(OC)c1OC` (stereo not given), the Activity in assay [1] amounted to 0%; in assay [2] it was 10%; in assay [4], 30%; in assay [5] it was 5%. For the same compound, the IC50 entry in assay [3] (ehrlich) is given as “Not Active”.
For the compound `COc1ccccc1C1C(C#N)=C(N)N(c2cc(OC)c(OC)c(OC)c2)C2=C1C(=O)CC(C)(C)C2` (stereo not given), the Activity in assay [1] came to 30%; in assay [2] it was 70%; in assay [4], 100%; in assay [5], 65%. In addition, the IC50 in assay [3] (setting [6]) stood at 26.6 µM.
Regarding `COc1cc(N2C(N)=C(C#N)C(c3ccc(OC)c4ccccc34)C3=C2CC(C)(C)CC3=O)cc(OC)c1OC` (stereo not given), the Activity in assay [1] worked out at 10%; in assay [2], 40%; in assay [4], 40%; in assay [5], 30%. Besides, the IC50 result in assay [3] (ehrlich) was “Not Active”.
Turning to `COc1cc(N2C(N)=C(C#N)C(c3ccc4c(c3)OCO4)C3=C2CC(C)(C)CC3=O)cc(OC)c1OC` (stereo not given), the Activity in assay [1] turned out to be 10%; in assay [2], 40%; in assay [4], 40%; in assay [5], 30%. Moreover, in assay [3] (ehrlich), the IC50 entry is on record as “Not Active”.
For `COc1cc(N2C(N)=C(C#N)C(c3ccc([N+](=O)[O-])cc3)C3=C2CC(C)(C)CC3=O)cc(OC)c1OC` (stereo not given), the Activity in assay [1] was 10%; in assay [2], 70%; in assay [4] it was 80%; in assay [5], 50%. Moreover, the IC50 in assay [3] (setting [6]) worked out at 25 µM.
Take `COc1cc(N2C(N)=C(C#N)C(c3cccc([N+](=O)[O-])c3)C3=C2CC(C)(C)CC3=O)cc(OC)c1OC` (stereo not given): the Activity is 5% in assay [1], 30% in assay [2], 30% in assay [4] and 20% in assay [5]. Moreover, the IC50 result in assay [3] (ehrlich) is given as “Not Active”.
For `COc1cc(N2C(N)=C(C#N)C(c3ccc(O)cc3)C3=C2CC(C)(C)CC3=O)cc(OC)c1OC` (stereo not given), the Activity was 10% in assay [1], 90% in assay [2], 100% in assay [4] and 20% in assay [5]. Further, the 50% inhibitory concentration (IC50) in assay [3] (setting [6]) amounted to 75.8 µM.
Consider `CCOc1cc(C2C(C#N)=C(N)N(c3cc(OC)c(OC)c(OC)c3)C3=C2C(=O)CC(C)(C)C3)ccc1O` (stereo not given), for which the Activity was 2% in assay [1], 40% in assay [2], 45% in assay [4] and 10% in assay [5]. Further, in assay [3] (ehrlich), the concentration for half-maximal inhibition (IC50) result is reported as “Not Active”.
Regarding `COc1cc(N2C(N)=C(C#N)C(c3ccc(C)o3)C3=C2CC(C)(C)CC3=O)cc(OC)c1OC` (stereo not given), the Activity in assay [1] came out at 21%; in assay [2], 41%; in assay [4], 50%; in assay [5] it was 31%. The half-maximal inhibitory concentration (IC50) in assay [3] (setting [6]) stood at 216 µM.
As to `COc1cc(N2C(N)=C(C#N)C(c3ccc(OC)c(OC)c3OC)C3=C2CC(C)(C)CC3=O)cc(OC)c1OC` (stereo not given), the Activity in assay [1] is recorded as 20%; in assay [2], 30%; in assay [4] it was 40%; in assay [5], 30%. Besides, the 50% inhibitory concentration (IC50) entry in assay [3] (ehrlich) is “Not Active”.
Regarding `COc1cc(N2C(N)=C(C#N)C(c3ccccc3O)C3=C2CC(C)(C)CC3=O)cc(OC)c1OC` (stereo not given), the Activity in assay [1] is reported as 0%; in assay [2], 2%; in assay [4], 10%; in assay [5] it was 0%. Also, the IC50 entry in assay [3] (ehrlich) is “Not Active”.
Regarding `COc1cc(N2C(N)=C(C#N)C(c3c(O)ccc4ccccc34)C3=C2CC(C)(C)CC3=O)cc(OC)c1OC` (stereo not given), the Activity in assay [1] was 2%; in assay [2], 15%; in assay [4], 90%; in assay [5], 10%. Further, in assay [3] (setting [6]), the IC50 is 143 µM.
With `COc1cc(N2C(N)=C(C#N)C(c3ccccc3)C3=C2CC(C)(C)CC3=O)cc(OC)c1OC` (stereo not given), the Activity is 0% in assay [1], 8% in assay [2], 10% in assay [4] and 6% in assay [5]. In addition, in assay [3] (ehrlich), the IC50 entry was “Not Active”.
In the case of `COc1cc(N2C(N)=C(C#N)C(c3ccc(C)cc3)C3=C2CC(C)(C)CC3=O)cc(OC)c1OC` (stereo not given), the Activity in assay [1] came to 30%; in assay [2] it was 60%; in assay [4], 90%; in assay [5] it was 50%. In addition, the IC50 in assay [3] (setting [6]) was found to be 52.9 µM.
